{
  "source": "ChEMBL document CHEMBL1141849",
  "about": "“A beta-carboline alkaloid from the soft coral lignopsis spongiosum” (1999)",
  "tested_on": "Escherichia coli",
  "test": "Antibacterial activity against Escherichia coli ATCC 25922 at 50 ug/disk by agar diffusion assay",
  "format": "functional",
  "settings": "read-out: IZ",
  "data": [
    {"smiles": "C[n+]1cc2[nH]c3ccccc3c2cc1C(=O)[O-]", "values": [
      {"measurement": "zone of inhibition at 50 µg/disc", "result": 11, "unit": "mm"}
    ]}
  ]
}
